Source: BigSolDB 2.1

COC(=O)[C@@H](N)Cc1c[nH]c2ccccc12.Cl
solubility (mole fraction)
Settings | 283.2 K | 288.2 K | 293.2 K | 298.2 K | 303.2 K | 308.2 K | 313.2 K | 318.2 K | 323.2 K
in 2-butanone | 0.000254 | 0.000295 | 0.00034 | 0.000401 | 0.000495 | 0.00058 | 0.000748 | 0.001 | 0.00141
in acetone | 0.000289 | 0.000374 | 0.000489 | 0.000605 | 0.000793 | 0.00104 | 0.00144 | 0.00219 | 0.00343
in acetonitrile | 3.75e-05 | 4.38e-05 | 5.24e-05 | 6.55e-05 | 8.15e-05 | 0.000101 | 0.000123 | 0.000147 | 0.000183
in ethanol | 0.00608 | 0.00634 | 0.00683 | 0.00737 | 0.00812 | 0.00885 | 0.00966 | 0.0108 | 0.012
in ethyl acetate | 4.01e-05 | 4.86e-05 | 5.9e-05 | 7.36e-05 | 0.000101 | 0.000134 | 0.000174 | 0.000226 | 0.000296
in isobutanol | 0.00135 | 0.00142 | 0.0015 | 0.00172 | 0.00205 | 0.00245 | 0.00281 | 0.00326 | 0.00374
in isopropanol | 0.00109 | 0.00122 | 0.00135 | 0.00157 | 0.00176 | 0.00195 | 0.0022 | 0.00241 | 0.00273
in methanol | 0.0291 | 0.0301 | 0.0317 | 0.0334 | 0.0354 | 0.0379 | 0.0403 | 0.0437 | 0.0478
in n-butanol | 0.00221 | 0.00231 | 0.00247 | 0.00263 | 0.00281 | 0.00304 | 0.00327 | 0.0035 | 0.00385
in n-propanol | 0.00303 | 0.00322 | 0.00348 | 0.00376 | 0.00401 | 0.00431 | 0.00465 | 0.00512 | 0.00574
in sec-butanol | 0.0013 | 0.00135 | 0.00149 | 0.00165 | 0.00183 | 0.00206 | 0.00227 | 0.00251 | 0.00296
in water | 0.00839 | 0.00951 | 0.0107 | 0.0125 | 0.015 | 0.0175 | 0.02 | 0.024 | 0.0278
